Results as given in patent US20150105252A1, “SUBSTITUTED PYRAZOLES AS HERBICIDES” (E I DU PONT DE NEMOURS AND COMPANY, priority 2013, published 2015).

Experiments:
nutsedge, yellow = test: Test C preemergence; format: in vivo, Cyperus esculentus; settings: for Plant response rating (scale of 0 to 100), Nutsedge, Yellow: Preemergence; for Nutsedge, Yellow plant response rating / Plant response rating, Nutsedge, Yellow: preemergence; for Plant response rating, Nutsedge, Yellow: scale 0 to 100, 0 = no effect, 100 = complete control
How it was run: (§1)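 Visual rating, 0–100 scale (0 no effect, 100 complete control), vs untreated controls after 13–15 d greenhouse. Pre: seeds in loam/sand, treated at sowing. Post: plants in peat-based mix, 1- to 4-leaf (2–18 cm). Solvent + surfactant formulation, non-phytotoxic.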

sedge, umbrella = test: Test C flooded paddy test; format: in vivo, Cyperus difformis; settings: Flood
How it was run: (§2)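 Visual injury ratings against untreated controls, taken 13 to 15 days after compound was added to paddy water standing 3 cm above the soil.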

foxtail, giant = test: Test C preemergence; format: in vivo, Setaria faberii; settings: for Plant response rating (scale of 0 to 100), Foxtail, Giant: Preemergence; for Foxtail, Giant plant response rating / Plant response rating, Foxtail, Giant: preemergence; for Plant response rating, Foxtail, Giant: scale 0 to 100, 0 = no effect, 100 = complete control
How it was run: as §1

galium = test: Test C postemergence; format: in vivo, Galium aparine; settings: for Plant response rating (scale of 0 to 100 where 0 is no effect and 100 is complete control), Galium: visually evaluated after 13 to 15 days; for Galium plant response rating: scale 0 to 100
How it was run: as §1

barnyardgrass [1] = test: Test C flooded paddy test; format: in vivo, Echinochloa crus-galli; settings: Flood
How it was run: as §2

rice = test: Test C flooded paddy test; format: in vivo, Oryza sativa; settings: Flood
How it was run: as §2

ducksalad = test: Test C flooded paddy test; format: in vivo, Heteranthera limosa; settings: Flood
How it was run: as §2

pigweed = test: Test A preemergence; format: in vivo, Amaranthus retroflexus
How it was run: (§3)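 Growth medium: loam soil blended with sand. Preemergence treatment used a directed soil spray right after planting; postemergence treatment targeted seedlings at one to two leaves (2–10 cm height). Response was judged by eye relative to untreated plants about 10 days later on a 0–100 control scale.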

barnyardgrass [2] = test: Test C preemergence; format: in vivo, Echinochloa crus-galli; settings: for Plant response rating (scale of 0 to 100), Barnyardgrass: Preemergence; for Barnyardgrass plant response rating / Plant response rating, Barnyardgrass: preemergence; for Plant response rating, Barnyardgrass: 125 g ai/ha, scale 0 to 100, 0 = no effect, 100 = complete control
How it was run: as §1

morningglory = test: Test A preemergence; format: in vivo, Ipomoea spp.; settings: 0 to 100 scale
How it was run: as §3

[3] = 31 g ai/ha, visual rating, scale 0 to 100 (0 no effect, 100 complete control), 13 to 15 days
[4] = 62 g ai/ha, scale 0 to 100 (0 no effect, 100 complete control), 13 to 15 days
[5] = 31 g ai/ha, scale 0 to 100 (0 no effect, 100 complete control)
[6] = 62 g ai/ha, scale 0 to 100 (0 no effect, 100 complete control)
[7] = postemergence, 250 g ai/ha, scale 0 to 100 (0 no effect, 100 complete control)
[8] = postemergence, 125 g ai/ha, scale 0 to 100, 0 no effect, 100 complete control
[9] = preemergence, 125 g ai/ha, visual injury, 0 to 100 scale, approx. 10 days
[10] = preemergence, 500 g ai/ha, visual injury after approx. 10 days, 0 to 100 scale (0 no effect, 100 complete control)
[11] = 31 g ai/ha, scale 0 to 100 (0 no effect, 100 complete control), 13 to 15 days
[12] = 125 g ai/ha, scale 0 to 100, 0 is no effect, 100 is complete control
[13] = 250 g ai/ha, scale 0 to 100, 0 is no effect, 100 is complete control
[14] = 125 g ai/ha, scale 0 to 100 (0 no effect, 100 complete control)

Compound	Plant response rating (scale of 0 to 100), Nutsedge, Yellow (nutsedge, yellow; 250 g ai/ha)	Nutsedge, Yellow plant response rating (nutsedge, yellow; [3])	Nutsedge, Yellow plant response rating (nutsedge, yellow; [4])	Plant response rating, Nutsedge, Yellow (nutsedge, yellow; 125 g ai/ha, 13 to 15 days)	Plant response rating, Sedge, Umbrella (sedge, umbrella; [5])	Plant response rating, Sedge, Umbrella (sedge, umbrella; [6])	Plant response rating, Sedge, Umbrella (sedge, umbrella; 125 g ai/ha, scale 0 to 100)	Plant response rating, Sedge, Umbrella (sedge, umbrella; 250 g ai/ha, scale 0 to 100)	Plant response rating (scale of 0 to 100), Foxtail, Giant (foxtail, giant; 250 g ai/ha)	Foxtail, Giant plant response rating (foxtail, giant; [3])	Foxtail, Giant plant response rating (foxtail, giant; [4])	Plant response rating, Foxtail, Giant (foxtail, giant; 125 g ai/ha, 13 to 15 days)	Plant response rating (scale of 0 to 100 where 0 is no effect and 100 is complete control), Galium (galium; Postemergence, 31 g ai/ha)	Plant response rating, Galium (galium; [7])	Plant response rating, Galium (galium; [8])	Plant response rating, Barnyardgrass (barnyardgrass [1]; [6])	Plant response rating, Rice (rice; [6])	Plant response rating, Rice (rice; 250 g ai/ha, scale 0 to 100)	Plant response rating, Ducksalad (ducksalad; [6])	Plant response rating, Ducksalad (ducksalad; 250 g ai/ha, scale 0 to 100)	other results
CCCc1cc(C(=O)NCC(F)(F)F)nn1Cc1ccnc(OC(F)F)c1 [Compound 127]	85	25	50	70	50	60	70	95	98	98	100	100	70	80	70	0	0	0	40	80	Galium plant response rating (galium; postemergence, 62 g ai/ha): 70; Plant response rating, Barnyardgrass (barnyardgrass [1]; [5]): 0; Plant response rating, Barnyardgrass (barnyardgrass [1]; 125 g ai/ha, scale 0 to 100): 15; Plant response rating, Barnyardgrass (barnyardgrass [1]; 250 g ai/ha, scale 0 to 100): 30; Plant response rating, Rice (rice; [5]): 0; Plant response rating, Rice (rice; 125 g ai/ha, scale 0 to 100): 0; Plant response rating, Ducksalad (ducksalad; [5]): 30; Plant response rating, Ducksalad (ducksalad; 125 g ai/ha, scale 0 to 100): 60; Pigweed plant response rating (pigweed; [9]): 90; Pigweed plant response rating (pigweed; [10]): 100; Plant response rating (scale of 0 to 100), Barnyardgrass (barnyardgrass [2]; 250 g ai/ha): 95; Barnyardgrass plant response rating (barnyardgrass [2]; [11]): 45; Barnyardgrass plant response rating (barnyardgrass [2]; [4]): 60; Plant response rating, Barnyardgrass (barnyardgrass [2]; 13 to 15 days): 95
CCOc1cc(C(=O)NCC(F)(F)F)nn1Cc1ccnc(OC(F)F)c1 [Compound 128]	90	45	75	80	30	50	75	85	100	98	100	100	60	70	80	0	0	0	75	90	Galium plant response rating (galium; postemergence, 62 g ai/ha): 65; Plant response rating, Barnyardgrass (barnyardgrass [1]; [5]): 0; Plant response rating, Barnyardgrass (barnyardgrass [1]; 125 g ai/ha, scale 0 to 100): 35; Plant response rating, Rice (rice; [5]): 0; Plant response rating, Rice (rice; 125 g ai/ha, scale 0 to 100): 0; Plant response rating, Ducksalad (ducksalad; [5]): 40; Plant response rating, Ducksalad (ducksalad; 125 g ai/ha, scale 0 to 100): 80; Pigweed plant response rating (pigweed; [9]): 100; Pigweed plant response rating (pigweed; [10]): 100; Plant response rating (scale of 0 to 100), Barnyardgrass (barnyardgrass [2]; 250 g ai/ha): 100; Barnyardgrass plant response rating (barnyardgrass [2]; [11]): 80; Barnyardgrass plant response rating (barnyardgrass [2]; [4]): 90; Plant response rating, Barnyardgrass (barnyardgrass [2]; 13 to 15 days): 98
CCc1cc(C(=O)NOC(C)C)nn1Cc1cccc(OC(F)(F)F)c1 [Compound 70]	85				75	75	85	90	98					90	75	0	0	50	40	85	Nutsedge, Yellow plant response rating (nutsedge, yellow; [11]): 0; Plant response rating, Nutsedge, Yellow (nutsedge, yellow; 62 g ai/ha, 13 to 15 days): 65; Nutsedge, Yellow plant response rating (nutsedge, yellow; [12]): 70; Foxtail, Giant plant response rating (foxtail, giant; [11]): 65; Plant response rating, Foxtail, Giant (foxtail, giant; 62 g ai/ha, 13 to 15 days): 75; Foxtail, Giant plant response rating (foxtail, giant; [12]): 90; Galium plant response rating (galium; Postemergence, 31 g ai/ha): 70; Plant response rating, Galium (galium; postemergence, 62 g ai/ha, scale 0 to 100, 0 no effect, 100 complete control): 70; Plant response rating, Barnyardgrass (barnyardgrass [1]; [5]): 0; Plant response rating, Barnyardgrass (barnyardgrass [1]; 125 g ai/ha, scale 0 to 100): 45; Plant response rating, Barnyardgrass (barnyardgrass [1]; 250 g ai/ha, scale 0 to 100): 65; Plant response rating, Rice (rice; [5]): 0; Plant response rating, Rice (rice; 125 g ai/ha, scale 0 to 100): 25; Plant response rating, Ducksalad (ducksalad; [5]): 30; Plant response rating, Ducksalad (ducksalad; 125 g ai/ha, scale 0 to 100): 85; Pigweed plant response rating (pigweed; Preemergence, 500 g ai/ha, 0 to 100 scale, 0 no effect, 100 complete control): 100; Pigweed plant response rating (pigweed; [9]): 100; Morningglory plant response rating (morningglory; Preemergence, 500 g ai/ha, 0 no effect, 100 complete control): 100; Morningglory plant response rating (morningglory; preemergence, 125 g ai/ha, visual injury, approx. 10 days): 80
CCCc1cc(C(=O)NC2CC2)nn1Cc1ccnc(OC(F)F)c1 [Compound 205]		40	65	75		75		100		100	100	100	65	80	80	0	0	0	75	100	Nutsedge, Yellow plant response rating (nutsedge, yellow; [13]): 90; Plant response rating, Sedge, Umbrella (sedge, umbrella; [14]): 95; Plant response rating, Sedge, Umbrella (sedge, umbrella; 500 g ai/ha, scale 0 to 100): 100; Foxtail, Giant plant response rating (foxtail, giant; [13]): 100; Galium plant response rating (galium; postemergence, 62 g ai/ha): 80; Plant response rating, Barnyardgrass (barnyardgrass [1]; [14]): 25; Plant response rating, Barnyardgrass (barnyardgrass [1]; 250 g ai/ha, scale 0 to 100): 35; Plant response rating, Barnyardgrass (barnyardgrass [1]; 500 g ai/ha, scale 0 to 100): 60; Plant response rating, Rice (rice; [14]): 0; Plant response rating, Rice (rice; 500 g ai/ha, scale 0 to 100): 35; Plant response rating, Ducksalad (ducksalad; [14]): 90; Plant response rating, Ducksalad (ducksalad; 500 g ai/ha, scale 0 to 100): 100; Pigweed plant response rating (0 to 100 scale) (pigweed; preemergence, 125 g ai/ha, visual injury approx. 10 days after treatment): 100; Barnyardgrass plant response rating (barnyardgrass [2]; [3]): 85; Barnyardgrass plant response rating (barnyardgrass [2]; [4]): 98; Plant response rating, Barnyardgrass (barnyardgrass [2]; 13 to 15 days): 100; Barnyardgrass plant response rating (barnyardgrass [2]; [13]): 100
